Experimental data published in patent publication US12172964B2, “Tricyclic octacationic cyclophane and its use in complexation with perlene diimide dyes” (Northwestern University, priority 2020, dated 2024).
“And” between values parts separate entries of the source, which are not always exact repeats. Identical values can stand only once. Marks after values point to notes of the source that are not given here.

Assays:
[1] = Isothermal titration calorimetry (ITC); format: binding; settings: for ΔG: directly determined by ITC
Experimental: In all ITC experiments, ExBox.4Cl and XCage.8CF3CO2 were used in titrations. Here we use ExBox^4+ and XCage^8+ for short. All of the solutions were prepared in spectroscopic grade solvents and equilibrated for 24 h at room temperature before use. All of the titrations were independently duplicated—shown below is one set of titration isotherms—and all isotherm fittings were used to calculate the average Ka and ΔH with relevant standard errors.
Isothermal titration was performed by TA Nano Isothermal Titration Calorimeter at 25° C. A hastelloy cell was used with an active cell volume 190 μL. The stirring speed was set at 150 rpm. Receptor and substrate solutions were prepared in Milli-Q water or MeCN and allowed to equilibrate overnight if necessary. […] After subtracting the heat of dilution, the resulting data were analyzed with NanoAnalyze software using a 1:1 binding model and plotted by Origin Lab 8.6 software.

[2] = Binding thermodynamics of ExBox.4Cl towards PDI2 in water (fluorescence titration / ITC)
Experimental: Direct fluorescence titration experiments: […] All of the solutions were prepared in spectroscopic grade solvents and equilibrated for 24 h at room temperature before use. All of the titrations were independently duplicated—shown below is one set of titration isotherms—and all isotherm fittings were used to calculate the average Ka and ΔH with relevant standard errors. Isothermal titration was performed by TA Nano Isothermal Titration Calorimeter at 25° C. A hastelloy cell was used with an active cell volume 190 μL. The stirring speed was set at 150 rpm. Receptor and substrate solutions were prepared in Milli-Q water or MeCN and allowed to equilibrate overnight if necessary.

[3] = Photophysical characterization; format: physicochemical
Experimental: Commercially available solvents and chemicals were purchased from Sigma-Aldrich and Fisher Scientific and used without further purification unless otherwise stated. Water was deionized, and micro filtered using Milli-Q water filtration station. Compounds PDI1^S1 and ExBox.4Cl^S2 were prepared using previously reported procedures. Thin layer chromatography (TLC) was performed on silica gel 60 F254 (E. Merck). Flash column chromatography was performed by Combiflash Rf 200 purification system. Reverse phase column chromatography was performed on Combiflash NEXTGEN 300+ system with SNAP ULTRA C18 cartridges which were purchased from Biotage. UV/Vis Absorption spectra were recorded in a glass cuvette using a UV-3600 Shimadzu spectrophotometer. Steady-state emission spectra were acquired in a quartz cuvette with an optical path-length of 10 mm containing the solution of interest using HORIBA Fluoromax4 spectrofluorometer, which was equipped with an integrating sphere for absolute photoluminescence quantum yield determination and time-correlated single-photon counting (TCSPC) module for emission decays. Nuclear magnetic resonance (NMR) spectra were recorded on Bruker AVANCE III 500 MHz spectrometer equipped with DCH CryoProbe, with working frequencies of 500 MHz for ^1H and 125 MHz for ^13C nuclei. […] High-resolution mass spectra were measured on an Agilent 6210 Time of Flight (TOF) LC-MS, using an ESI source, coupled with Agilent 1100 HPLC stack, using direct infusion (0.6 mL/min). Single crystal data were obtained on a Bruker Kappa APEX2 CCD diffractometer using Cu-Kα radiation. Detailed experimental procedures are provided below in the appropriate sections.
The fluorescence quantum yield of PDI dyes were measured by using rhodamine 6G in EtOH (Φf=0.95) as standard.^S2 The concentrations of rhodamine 6G and PDI dyes were adjusted to the absorption value 0.08 at 450 nm. The fluorescence spectrum of each solution was obtained with excitation at 450 nm, and the integrated area was used in the fluorescence quantum yield calculation. The estimated error for this method^S13 is ±10%. The fluorescent life-time was measured by Horiba Fluoromax-4 fluorometer equipped with TCSPC. Samples were excited by a laser at 374 nm, and the fluorescence decay over time was monitored at 560 nm. The fluorescent decay profiles were analyzed by a DAS6 software and matched either by a single exponential decay or double exponential decay model through mathematic fittings.

[4] = Binding kinetics of threading PDI2 into XCage.8CF3CO2, tracked by turn-on fluorescence; settings: water, second order kinetic model
Experimental: (§1) In all experiments shown below, ExBox.4Cl and XCage.8CF3CO2 were used in titration studies. Here we use ExBox^4+ and XCage^8+ for short. All of the solutions were prepared in spectroscopic grade solvents and equilibrated for 24 h at room temperature before use. All of the studies were independently duplicated and the corresponding isotherms were fitted to calculate the average Ka or kon values with the relevant standard errors.
Equal volume of PDI2 (1 μL, 100 μM) and XCage^8+ (1 μL, 100 μM) were mixed in H2O (1 mL) and the change of fluorescence (ex: 540 nm, em: 554 nm) was monitored over time. The resulting threading kinetics profiles were fitted using a second order kinetics model by Origin Lab 8.6 software. In MeCN, the change of fluorescence over time upon the formation of PDI2⊂XCage^8+ is too small to produce a kinetics profile as a result of the similar quantum yield between PDI2⊂XCage^8+ and PDI2.

MCF-7 cells [5] = test: Live-cell confocal microscopy; format: cell-based, human; settings: MCF-7, 10 μM, 6 h
Experimental: (§2) MCF-7 cells (human breast adenocarcinoma cell line) obtained from American Type Culture Collection (ATCC, Rockville, Md., USA) was utilized for cell culture experiments. MCF-7 cells were cultured in Dulbecco's Modified Eagle's Medium (DMEM) supplemented with 10% fetal bovine serum (FBS), penicillin (100 IU/mL) and streptomycin (100 μg/mL) at 37° C. in the presence of air (95%) and carbon dioxide (5%).
(§3) MCF-7 cells (1×10^5 cells/ml, 300 μL) were plated in each well of an 8-well chamber slide (ThermoFischer Scientific) and adhered overnight. PDI2 or PDI2⊂XCage^8+ was added to each well and incubated for 6 h or 24 h. Cells were then washed with PBS, and stained with LysoTracker green (lysosome stain, 1:1000 dilution) or NucBlue™ Live ReadyProbes™ Reagent (nuclear stain, 1 drop) or Hoechst 33342 nucleic acid stain (1:2000 dilution from 10 mg/mL stock). Plated cells were imaged within a humidified chamber using a 63× oil-immersion objective on a SP5 Leica Confocal Microscope using HyD detectors and lasers or a Deltavision Core Elite with a DAPI excitation filter (381-399 nm), DAPI emission filter (em: 411-459 nm) and TRITC emission filter (em: 571-617 nm) at equivalent light levels and exposure time. Intensity of signal in cells was measured with FIJI/ImageJ software.

[6] = Binding constants by direct and displacement fluorescence titration; settings: for ΔG / Ka Fluorescence: 25° C.; for ΔG: estimated from fluorescence titrations
Experimental: as §1
Direct fluorescence titration experiments: Since the association between PDI2 and ExBox^4+ in H2O produces turn-on fluorescence, we tracked the increase of fluorescence (ex: 545 nm, em: 555 nm) of PDI2 by varying equivalents of ExBox^4+. Caffeine is not fluorescent in H2O and its association with XCage^8+ quenches the fluorescence of XCage^8+. Thus, the fluorescence quenching of XCage^8+ was tracked by the addition of Caffeine. In MeCN, the fluorescence of perylene is quenched by XCage^8+ and thus the titration was performed by tracking the fluorescence quenching of Perylene. A plot of fluorescent intensity versus receptor concentration [R]0 or substrate concentration [S]0 was fitted with a nonlinear least-squares fitting equation for 1:1 binding model to calculate the binding constant Ka using Origin Lab 8.6 software.^S14, S15
Displacement fluorescence titration experiments in H2O: A large access of the competitor caffeine (10 mM) was pre-mixed with XCage^8+ (10 μM), and the solution was equilibrated for 30 min before titration. The substrate solution of PDI2 was injected in aliquots. For each injection, the guest displacement process was relatively slow and took about 3-10 min to reach the equilibrium as monitored by the change of fluorescence (ex: 560 nm, em: 660 nm) over time. At this excitation wavelength, PDI2⊂XCage^8+ is fluorescent; XCage^8+, PDI2 and Caffeine are nonfluorescent. The association constants were calculated by fitting the titration data with a nonlinear least-squares fitting equation for displacement binding using Origin Lab 8.6 software.^S14
Displacement fluorescence titration experiments in MeCN: Perylene (250 μM) was premixed with XCage^8+ (5 μM) in MeCN, and the solution was equilibrated for 30 min before titration. The substrate solution of PDI2 was injected in aliquot amount. Between each injection, the change of fluorescence intensity was monitored over time until the fluorescence (ex: 550 nm, em: 660 nm) intensity reached a steady state. At this excitation wavelength, […] is fluorescent while XCage^8+ and PDI2 are nonfluorescent. The association constants were calculated by fitting the titration data with a nonlinear least-squares fitting equation for displacement binding using Origin Lab 8.6 software.^S14

MCF-7 cells [7] = test: Live-cell widefield fluorescence imaging using energy transfer; format: cell-based, human; settings: MCF-7, 20 μM, 6 h
Experimental: as §2, §3

Solubility observations = format: physicochemical

With Cn1c(=O)c2c(ncn2C)n(C)c1=O [Caffeine, reference compound] as the compound, how does the TΔS ([1]; H2O, 25° C.) read?
The TΔS was −1.5 kcal mo1^−1.

And the ΔH ([1]; H2O, 25° C.)?
The ΔH was −8.6 kcal mo1^−1.

What about the ΔG ([1]; H2O, 25° C.) of the same compound?
Its ΔG is −7.1^c kcal mo1^−1.

With c1cc2ccc1C[n+]1ccc(cc1)-c1ccc(cc1)-c1cc[n+](cc1)Cc1ccc(cc1)C[n+]1ccc(cc1)-c1ccc(cc1)-c1cc[n+](cc1)C2 [ExBox.4Cl] as the compound, how does the binding affinity [2] read?
The binding affinity was 2e+06 M⁻¹.

What about the binding enthalpy [2] of the same compound?
The binding enthalpy was -7.4 kcal/mol.

Which results are given for COCCOCCOCCOCCOCCOCCOCCOCCOCCOCCOCCOCCOCCOCCOCCOCCOCCOCCOCCOCCOCCOCCOCCOCCOCCOCCOCCOCCOCCOCCOCCOCCOCCOCCOCCOCCOCCOCCOCCOCCOCCOCCOCCOCCOCCN1C(=O)c2ccc3c4ccc5c6c(ccc(c7ccc(c2c37)C1=O)c64)C(=O)N(CCOCCOCCOCCOCCOCCOCCOCCOCCOCCOCCOCCOCCOCCOCCOCCOCCOCCOCCOCCOCCOCCOCCOCCOCCOCCOCCOCCOCCOCCOCCOCCOCCOCCOCCOCCOCCOCCOCCOCCOCCOCCOCCOCCOCCOC)C5=O [PDI2]?
TΔS ([1]; H2O, 25° C.): 0.7 kcal mo1^−1; ΔH ([1]; H2O, 25° C.): −14.1 kcal mo1^−1; TΔS ([1]; MeCN, 25° C.): 2.8 kcal mo1^−1; ΔH ([1]; MeCN, 25° C.): −10.2 kcal mo1^−1; binding enthalpy in water higher than in MeCN ([1]; water versus MeCN): 4 kcal/mol; logε ([3]; H2O): 4.48; Φf ([3]; H2O): 0.04; λabs ([3]; H2O): 497/534; λem ([3]; H2O): 542/586/633; λex ([3]; H2O): 461/502/529; τ ([3]; H2O): 4.7 ns and 4.71 ns; fluorescence quantum yield ([3]; MeCN): 66%; logε ([3]; MeCN): 4.91; red shift of absorption and emission maxima of PDI2 in the presence of XCage.8CF3CO2 ([3]; MeCN): 23-25 nm; Φf ([3]; MeCN): 0.66; λem ([3]; MeCN): 529/568/617; λex ([3]; MeCN): 452/482/518; τ ([3]; MeCN): 4.47 ns; fluorescence quantum yield ([3]; water): 4%; kon [4]: (4.8±1.1)×10^5 M^−1s^−1; fluorescence in brightfield-merged confocal images (MCF-7 cells [5]): no fluorescence; ΔG ([6]; H2O): −14.8^d kcal mo1^−1; Ka Fluorescence ([6]; H2O, PDI2 by displacement in presence of 1000 molar equivalents of Caffeine): 7.7e+10 M⁻¹; ΔG ([6]; MeCN): −13.0^d kcal mo1^−1; fluorescence signal, DAPI excitation filter (ex: 381-399 nm), TRITC emission filter (em: 571-617 nm) (MCF-7 cells [7]): did not show any fluorescence signal

With c1cc2cccc3c4cccc5cccc(c(c1)c23)c54 [Perylene, reference compound] as the compound, how does the “Ka ITC” value ([1]; MeCN, 25° C.) read?
Its value is 3.6e+06 M⁻¹.

What about the TΔS ([1]; MeCN, 25° C.) of the same compound?
The TΔS was 2.0 kcal mo1^−1.

And the ΔH ([1]; MeCN, 25° C.)?
The ΔH was −06.9 kcal mo1^−1.

What about the ΔG ([1]; MeCN, 25° C.) of the same compound?
The ΔG was −08.9^c kcal mo1^−1.

And the “Ka Fluorescence” value ([6]; MeCN, PDI2 by displacement of 50 molar equivalents of Perylene)?
The value was 5e+06 M⁻¹.

Which “TΔΔS, loss of binding entropy compared with ExBox.4Cl” value ([1]; water, guest PDI2) does the source give for c1cc2ccc1C[n+]1ccc(cc1)-c1cc3cc(c1)-c1cc4cc(c1)-c1cc[n+](cc1)Cc1ccc(cc1)C[n+]1ccc(cc1)-c1cc(cc(c1)-c1cc(cc(c1)-c1cc[n+](cc1)Cc1ccc(cc1)C[n+]1ccc-3cc1)-c1cc[n+](cc1)C2)-c1cc[n+](cc1)Cc1ccc(cc1)C[n+]1ccc-4cc1 [XCage.8CF3CO2] here?
The value was -0.5 kcal/mol.

What about the “ΔΔH, gain in binding enthalpy compared with ExBox.4Cl” value ([1]; water, guest PDI2) of the same compound?
The value was -6.7 kcal/mol.

And the “blue fluorescence emission range” value ([3]; water)?
The value was 350-550 nm.

And the fluorescence quantum yield ([3]; water)?
The fluorescence quantum yield was 10%.

And the solubility (Solubility observations; MeCN)?
The solubility was “slightly soluble”.

What about the solubility (Solubility observations; water and MeOH) of the same compound?
The solubility was “highly soluble”.

What about the “binding constant for Perylene, times higher than that of ExBox^4+.4PF6” value ([6]; MeCN) of the same compound?
The value was “about 86”.

And the “enhancement of binding affinity towards PDI2 compared with ExBox.4Cl (factor)” value ([6]; water)?
The value was 38,000.
